Experimental data taken from publication PMC9770967, “Native holdup (nHU) to measure binding affinities from cell extracts” (Science Advances, 2022).
One block for each substance: values may come before it.

What was measured:
Format in all cases: binding, human
[1] = target: SNX27_PDZ; test: nHU-MS, SNX27_PDZ bait, total SH-SY5Y extracts
Procedure: (§1) The empty His6-AviTag-MBP-TEV vector was used to produce biotinylated MBP for control experiments. Proteins were coexpressed with BirA biotin ligase (PET21a-BirA, Addgene, no. 20857) in Escherichia coli BL21(DE3) cells. At isopropyl-β-D-thiogalactopyranoside (IPTG) induction (1 mM IPTG at 18°C overnight), 50 μM biotin was added to the media. Harvested cells were lysed in a buffer containing 50 mM tris (pH 7.5), 150 to 300 mM NaCl, 50 μM biotin, 2 mM β-mercaptoethanol, cOmplete EDTA-free protease inhibitor cocktail (Roche, Basel, Switzerland), 1% Triton X-100, and trace amount of deoxyribonuclease, ribonuclease, and lysozyme. Lysates were frozen at −20°C before further purification steps. Lysates were sonicated and centrifuged for clarification. Expressed proteins were captured on in-house prepacked Ni-IDA (Protino Ni-IDA Resin, Macherey-Nagel, Duren, Germany) columns and were washed with at least 10 column volumes of cold wash buffer [50 mM tris (pH 7.5), 150 mM NaCl, and 2 mM β-mercaptoethanol] before elution with 250 mM imidazole. The Ni elution was collected directly on a preequilibrated amylose column (amylose high flow resin, New England Biolabs, Ipswich, MA). Amylose column was washed with 5 column volumes of cold wash buffer before fractionated elution in a buffer containing 25 mM Hepes (pH 7.5), 150 mM NaCl, 1 mM TCEP, 10% glycerol, 5 mM maltose, and cOmplete EDTA-free protease inhibitor cocktail. The concentration of proteins was determined by their ultraviolet absorption at 280 nm before aliquots were snap-frozen in liquid nitrogen and stored at −80°C.
(§2) For saturating streptavidin resin with biotinylated peptides or biotin, 50 μl of streptavidin resin was mixed with biotin or peptide at 40 to 60 μM concentration in 6 to 6.5 resin volume for 60 min. To saturate streptavidin resin with biotinylated proteins, 50 μl of streptavidin resin (Streptavidin Sepharose High Performance, Cytiva) was mixed with biotinylated MBP or MBP-PDZ at 40 to 50 μM concentration in 20× resin volume for 60 min. After saturation, resins were washed a single time [10 resin volume, holdup buffer: 50 mM tris (pH 7.5), 300 mM NaCl, and 1 mM TCEP, 0.22-μm filtered] and were depleted with biotin (10 resin volume, 10 min, holdup buffer supplemented with 100 μM biotin). Last, resins were washed two times (10 resin volume, holdup buffer).
(§3) For single-point nHU experiments carried out at ~10 μM bait concentration, 50 μl of saturated streptavidin resin was mixed with 200 μl of cell lysate (2 mg/ml). Titration experiments were carried out by mixing control and bait-saturated resin and keeping the total resin volume constant; e.g., ~5 μM bait concentration can be achieved by mixing 25 μl of bait-saturated streptavidin resin with 25 μl of control resin and 200 μl of cell lysate (2 mg/ml). Control and bait-saturated resins were prepared in larger amounts, and a serial dilution was prepared with these presaturated resins to achieve different resin ratios.
(§4) Unless specified elswhere, the nHU mixture was incubated at 4°C for 2 hours. After the incubation ended, the resin was separated from the supernatant by a brief centrifugation (15 s, 2000 g). Then, half of the supernatant was removed by pipetting without any delay to avoid any resin contamination; e.g., 100 μl of supernatant is collected if 200 μl of cell lysate was used as analyte. Alternatively, the supernatant can be centrifuged an additional time to clarify it further, removing any possible resin contamination. In principle, the separation of the supernatant should be as fast as possible since any delay can perturb the equilibrium. […] Alternatively, the resin can be separated from the supernatant using filter plates (e.g., various products of Millipore, Burlington, MA) or spin columns (e.g., Pierce spin cups—cellulose acetate filter from Thermo Fisher Scientific, Waltham, MA) to achieve faster separation. […]

[2] = system: SNX27_PDZ; test: AP-MS control pull-down on leftover resin, SNX27_PDZ bait, total SH-SY5Y extracts; details: n = 6
Procedure: (§5) Leftover beads from nHU-MS experiments were washed three times immediately after the separation of the supernatant [10 resin volume in buffer containing 50 mM tris (pH 8.5), 150 mM NaCl, 1% Triton X-100, 10× cOmplete EDTA-free protease inhibitor cocktail, 2 mM EDTA, and 1 mM TCEP]. Then, the beads were washed two times [10 resin volume buffer containing 50 mM tris (pH 8.5), 150 mM NaCl, and 1 mM TCEP]. Last, captured protein was eluted from the resin in two steps, and the eluted fractions were pooled. For each elution, the beads were incubated for 30 min with three resin volume buffer containing 20 mM tris (pH 8.5), 100 mM NaCl, 500 μM TCEP, and 8 M urea. Between each step, the beads were separated by mild centrifugation, and the supernatant was removed by gentle pipetting.
(§6) The nHU samples were precipitated with trichloroacetic acid (TCA) 20% overnight at 4°C and centrifuged at 14,000 rpm for 10 min at 4°C. The protein pellets were washed twice with 1 ml of cold acetone and air-dried. The protein extracts were solubilized in 8 M urea, reduced with 5 mM TCEP for 30 min, and alkylated with 10 mM iodoacetamide for 30 min in the dark. Double digestion was performed at 37°C with 500 ng of endoproteinase Lys-C (Wako, Richmond, USA) for 4 hours, followed by fourfold dilution and an overnight digestion with 500 ng of trypsin (Promega, Charbonnieres les Bains, France). Peptide mixtures were then desalted on a C18 spin-column and dried on a speed vacuum.
(§7) Samples were analyzed using an Ultimate 3000 nano-RSLC coupled in line via a nano-electrospray ionization source, with an LTQ-Orbitrap ELITE mass spectrometer (Thermo Fisher Scientific, San Jose, CA) or with the Orbitrap Exploris 480 mass spectrometer (Thermo Fisher Scientific, Bremen, Germany) equipped with a high field asymmetric ion mobility spectrometry (FAIMS) module. Peptide mixtures were injected in 0.1% trifluoroacetic acid on a C18 Acclaim PepMap100 trap column [75 μm inner diameter (ID) × 2 cm, 3 μm, 100 Å, Thermo Fisher Scientific] for 3 min at 5 μl/min with 2% acetonitrile (ACN) and 0.1% formic acid (FA) in H2O and then separated on a C18 Acclaim PepMap100 nano-column (75 μm ID × 50 cm, 2.6 μm, 150 Å, Thermo Fisher Scientific) at 300 nl/min and 40°C with a 90-min linear gradient from 5 to 30% buffer B (A: 0.1% FA in H2O/B: 80% ACN, 0.1% FA in H2O) and regeneration at 5% B. Spray voltage was set to 2.1 kV and heated capillary temperature was set to 280°C.
For the Orbitrap Elite, the mass spectrometer was operated in positive ionization mode in data-dependent mode with survey scans from mass/charge ratio (m/z) 350 to 1500 acquired in the Orbitrap at a resolution of 120,000 at m/z 400. […]

[3] = target: full-length SNX27; test: nHU-MS, recombinant full-length SNX27 bait, total Jurkat extracts; details: apparent, Fig. 4D, n = 6
Procedure: as §1, with “Amylose column was washed with 5 column volumes of cold wash buffer before fractionated elution in a buffer containing 25 mM Hepes (pH 7.5), 150 mM NaCl, 1 mM TCEP, 10% glycerol, 5 mM maltose, and cOmplete EDTA-free protease inhibitor cocktail.” left out, “−80°C. […]” for “−80°C.”

[4] = system: SNX27_PDZ; test: nHU-MS, SNX27_PDZ bait, total Jurkat extracts, series 1
Procedure: as §1, §2, §3, §4

[5] = system: SNX27_PDZ; test: AP-MS control pull-down on leftover resin, SNX27_PDZ bait, total Jurkat extracts
Procedure: as §5, §6, §7
For the Orbitrap Elite, the mass spectrometer was operated in positive ionization mode in data-dependent mode with survey scans from mass/charge ratio (m/z) 350 to 1500 acquired in the Orbitrap at a resolution of 120,000 at m/z 400. The 20 most intense peaks from survey scans were selected for further fragmentation in the linear ion trap with an isolation window of 2.0 Da and were fragmented by collision-induced dissociation (CID) with a normalized collision energy of 35% (TOP 20 CID method). Unassigned and single-charged states were excluded from fragmentation. The ion target value for the survey scans (in the Orbitrap) and the MS2 mode (in the linear ion trap) were set to 1E6 and 5E3, respectively, and the maximum injection time was set to 100 ms for both scan modes. Dynamic exclusion was set to 20 s after one repeat count with mass width at ±10 parts per million (ppm). […]

[6] = Jurkat, series 1, leftover resin, n = 6

- pKapp_HU_not_filtered ([1]; apparent, Eq. 2, not filtered for significance): 4.672
- pKapp_significant_binders_HU ([1]; apparent, Eq. 2, significant binders (1 σ, P < 0.05)): 4.672
Substance: ELOC: Elongin-C
- BI_HU ([1]; n = 6): 0.3189
- FC_HU (log2 fold change) ([1]; n = 6): -0.5541
- Ratio_HU ([1]; n = 6): 0.6811
- FC_AP (log2 fold change) [2]: -2.345
- Ratio_AP [2]: 0.1968

- pKapp [3]: 5.23
Substance: VPS26B: component of the retromer complex

- pKapp_HU_not_filtered ([4]; nHU-MS, SNX27 bait, total Jurkat extract, not filtered for significance): 4.715
Substance: MACROH2A1
- Ratio_HU ([4]; nHU-MS, SNX27/MBP, total Jurkat extract, sheet "SNX27&Jurkat"): 0.6592
- BI_HU ([4]; nHU-MS, SNX27 bait vs MBP control, total Jurkat extract, sheet "SNX27&Jurkat"): 0.3408
- FC_HU ([4]; nHU-MS, SNX27 vs MBP control, total Jurkat extract, sheet "SNX27&Jurkat"): -0.6013
- Ratio_AP ([5]; AP-MS control pull-down, SNX27/MBP, total Jurkat extract): 19.7749
- FC_AP ([5]; AP-MS control pull-down, SNX27 vs MBP, total Jurkat extract): 4.3056
- BINDER_AP ([5]; AP-MS control pull-down, total Jurkat extract, BINDS / DOES NOT BIND): BINDS

- pKapp_significant_binders_HU ([4]; apparent, Eq. 2, Jurkat, series 1, significant binders (1 σ, P < 0.05)): 4.572
Substance: TXNDC12: Thioredoxin domain-containing protein 12 OS=Homo sapiens
- BI_HU ([4]; Jurkat, series 1, n = 6): 0.2712
- FC_HU (log2 fold change) ([4]; Jurkat, series 1, n = 6): -0.4564
- Ratio_HU ([4]; Jurkat, series 1, n = 6): 0.7288
- FC_AP (log2 fold change) [5, 6]: -0.5204
- Ratio_AP [5, 6]: 0.6972
